Assay results from US11292787B2, “Five-membered-fused-six-membered aza-aromatic ring compound, preparation method thereof, pharmaceutical composition and application thereof” (XIAMEN UNIVERSITY, priority 2017, dated 2022).
Entries after “also recorded” stand apart in the source; their conditions may differ.

What was measured:
MCF-7 cells = assay: Soft agar colony formation, MCF-7 cells (K-RAS-WT); format: cell-based; conditions: K-RAS-WT genetic background, FIG. 2a
Description: (§1) The specific method was as follows:
(§2) 1) 1% agar was formulated, and autoclaved. 1% agar was heated and melted in a boiling water bath before use, and then cooled in a 40° C. water bath (by holding in the bath for at least 30 minutes, the agar was cooled to a temperature of 40° C.); at the same time, 2×DMEM/FBS was placed in a warm bath. 2) A bottom agar with 0.5% agar was prepared by mixing 1% agar with 2×DMEM/FBS in a sterile tube at a volume ratio of 1:1. The mixed solution was added to a 6-well plate rapidly at 1.5 ml per well, shaked slightly, and placed at room temperature for solidification (after solidification, the bottom agar could be stored at 4° C. for 1 week. Before use, it was placed at room temperature for at least 30 minutes to return to room temperature).
(§3) 1) A mixed solution with a final concentration of 0.3% agar+1×DMEM/FBS was formulated in a sterile tube using 1% agar, 2×DMEM/FBS and sterile water at a temperature of 40° C. The prepared mixed solution was placed in a 40° C. water bath for use.
(§4) 2) The cells were trypsinized and counted. The cell density was adjusted according to the needs of the experiment. […]

K-Ras protein = target: T1, K-Ras protein (Homo sapiens, UniProt P01116, G12V); assay: K-Ras protein degradation rate by Western blot in SW-620 cells; format: cell-based; conditions: for percent K-Ras protein degradation (single point) at 10 µM: SW-620 cells, 24 h, Western blot, relative to DMSO control, read-out: Degradation rate of compounds at 10 μM on Ras protein (%)
T1 construct: in SW620 cells, compound I-a-1 can effectively enhance the degradation of endogenous K-RAS-G12V proteins; endogenous in cells; host or cells: SW-620
Description: (§5) Inhibitory activity of compounds on K-RAS was evaluated by the degradation rate of protein level of administration group relative to control group (Cell Rep 2014, 7, 871-882).
as §1
1. Cell plating: SW-620 cells in logarithmic growth phase were inoculated into a 24-well plate at 2×10^4/well, and cultured in a 37° C., 5% CO2 incubator.
2. Administering drug to cells: after 24 h of culture, various drug stocks […]; the original solution in the 24-well plate was discarded, to which was added the obtained drug solution, with the DMSO group as the blank control; after the drug solution was added, the 24-well plate was transferred to the 37° C. CO2 incubator to continue the culture.
3. Detection of K-Ras protein level: after 24 h of administration and culture, the liquid in the well was discarded, the cells were routinely collected, and rinsed twice with 1×PBS, a cell lysate was added to extract the total cellular protein, and the protein concentration was determined by BCA method. 30 μg of the protein sample was taken for SDS-polyacrylamide gel electrophoretic transmembrane, the membrane was blocked sequentially, incubated with K-Ras antibody (1:1000) and internal reference antibody β-actin (1:2000) respectively overnight at 4° C., rinsed with TBST for 5 min×3 times, then incubated with the addition of the corresponding horseradish peroxidase-labeled secondary antibody (1:5000) for 1-2 h, and rinsed with TBST for 5 min×3 times. Finally, chemiluminescence image was acquired using Image Lab software.
4. Calculation of single-point K-Ras protein degradation rate: quantitative and calibration analysis of K-Ras and β-actin were conducted using Image-Lab software, and then the intracellular K-Ras degradation rate was calculated according to the following formula: single-point K-Ras protein degradation rate (%)=(control group−administration group)/control group×100%. The drug with degradation rate ≥20% was selected for soft agar experiment.

HT-29 cells = assay: Soft agar colony formation, HT-29 cells (RAF mutation); format: cell-based; conditions: RAF mutation genetic background, FIG. 2c
Description: as §1, §2, §3, §4

SW620 xenograft = assay: Nude mouse SW620 xenograft tumor experiment; format: in vivo, nude mice; conditions: tail vein, 40 mg/kg, 80 mg/kg per day, 10 days
Description: as §1
1. 4-5 weeks old nude mice were subcutaneously injected with a SW620 cell suspension with a cell number controlled at about 5×10^6.
2. The tumor-bearing condition was observed after two to three days, and the mice were administered when the tumor volume was about 150 mm^3.
4. The mice were injected intravenously regularly with drug or control solvent every day, and the daily tumor volume was recorded.
5. The mice were continuously administered for 10 days, and the changes in tumor volume of the drug-administered group and the control group were observed.
6. 10 days later, eyeball blood was taken from all mice, and blood samples were kept for subsequent testing. After the mice were killed, the subcutaneously growing tumors were completely taken out, the tumor weights were recorded, and the tumors were stored in liquid nitrogen for subsequent testing.

K-RAS-G12V = target: T2, K-RAS-G12V (Homo sapiens, UniProt P01116, G12V); assay: Degradation of overexpressed K-RAS-G12V protein in 293T cells (FIG. 1a); format: cell-based; conditions: 293T cells overexpressing K-RAS-G12V
T2 construct: expressed in transfected cells; host or cells: 293T
Description: as §5

SW620 cells = assay: Soft agar colony formation, SW620 cells (K-RAS-G12V); format: cell-based; conditions: K-RAS-G12V genetic background, FIG. 2b
Description: as §1, §2, §3, §4

O=C(NCc1c(F)cccc1Cl)c1csc(-c2n[nH]c3ccccc23)c1 [I-a-1]
colony formation on soft agar (MCF-7 cells): can effectively inhibit colony formation of the cells
percent K-Ras protein degradation (single point) at 10 µM (K-Ras protein): 52%
degradation of endogenous K-RAS-G12V protein (K-Ras protein; SW620 cells, FIG. 1b): can effectively enhance the degradation of endogenous K-RAS-G12V proteins and has good concentration dependence
colony formation on soft agar (HT-29 cells): does not inhibit colony formation of the cells
tumor growth (tumor volume) (SW620 xenograft; FIG. 3a): could effectively inhibit the growth of cancer cells with RAS positive genetic background in nude mice; also recorded: can effectively inhibit the increase of tumor volume and has good dose dependence
final tumor weight (SW620 xenograft; FIG. 3b): obviously smaller than that of the control group
degradation of exogenous overexpressed RAS (K-RAS-G12V) protein (K-RAS-G12V): can effectively enhance the degradation of exogenous overexpressed RAS proteins and has good concentration dependence

O=C(NCc1c(F)cccc1Cl)c1csc(-c2n[nH]c3ncccc23)c1 [III-a-1]
percent K-Ras protein degradation (single point) at 10 µM (K-Ras protein): 21%
colony formation on soft agar (SW620 cells): can effectively inhibit colony formation of the cells
